Patent US9603852B2, “Treatment of obesity and pulmonary arterial hypertension” (ALBERT EINSTEIN COLLEGE OF MEDICINE, INC., priority 2013, dated 2017)

Tests used:
Sprague-Dawley rats [1] = assay: Rat monocrotaline (MCT) model of pulmonary arterial hypertension; assay type: in vivo; details: for Deaths/Total N: 21 days
Description: Monocrotaline (MCT) (Sigma-Aldrich) was formulated by standardized procedures, by first dissolving in an acidic solution (HCl), diluting with distilled H2O, then raising the pH to physiological levels (7.35-7.45) with NaOH. MCT (60 mg/kg) or a volume-matched saline solution was injected intraperitoneally once at the beginning of the study. Body weights were collected on day 0, 5, 7, 11, 14, 18, and 21.
MCT and saline-injected rats (Day 1) were equally and randomly assigned to receive either vehicle (Cremophor-NMP), low dose Compound 146 or high dose Compound 146 via subcutaneous injections (Days 1-21). Injections were administered subcutaneously at 12 hour intervals throughout the study (actual range was 10-14 h).
After 21 days of twice daily subq injections of either vehicle or two concentrations of Compound 146, rats were anesthetized (1.5-2.5% isoflurane; […]), shaved and positioned in dorsal recumbence. Anesthesia was maintained at an appropriate depth, with a target heart rate of ˜350 bpm to ensure minimal cardio-depressant effects during collection of RVSP.
Upon absent deep pain reflex, a thoracotomy was performed to reveal the right ventricle and a fluid-filled catheter was inserted beyond the right ventricular free wall to permit recording of right ventricular hemodynamics (ADI Instruments). A digital trace of 10-30 seconds was obtained from which to derive right ventricular diastolic, mean, and systolic pressures, along with heart rate and related hemodynamic measures. Blood was then drawn via cardiac puncture and centrifuged to obtain EDTA plasma. Hearts were removed and the right ventricle dissected free from the septal wall. Each piece was weighed and reported as RV/LV+S. Tissues (plasma, heart, and lung) were excised and frozen in liquid nitrogen for later biochemical analysis. Additionally, kidneys and liver were snap frozen and stored for subsequent analysis.
Animals were examined twice per day (morning and evening) on each day of the study. Examinations focused on (1) identifying dead, weak, or moribund animals, and (2) documenting the onset and progression of any abnormal clinical signs, especially dermal lesions. Animals found dead were necropsied as soon as possible; for those subjects RV/LVS weight ratios were obtained, but no other parameters were collected.
All data were analyzed by a one-way ANOVA with Newman-Keuls post-hoc multiple comparison test. Probability values less than 0.05 were accepted as significant. Normality of distribution was assumed but for all data sets. All data were analyzed with GraphPad Prism v5.02.

C57BL6/J mice [2] = assay: Glucose tolerance test in HFD-fed mice; assay type: in vivo; details: mice on HFD, 0.2 mM in drinking water for 67 days; glucose 2 g/kg i.p. after 12 h fast
Description: Glucose intolerance is often associated with obesity and HFD causes glucose intolerance. Mice were fasted for 12 hours. Glucose was injected intraperitoneally (20% glucose in saline, 2 g/kg body weight), and plasma glucose levels were measured at various time points by tail cut.

Sprague-Dawley rats [3] = assay: Tolerability with twice daily injections in the naive rodent; assay type: in vivo; details: 7 days
Description: In the first arm of the project, the tolerability of compounds was assessed with twice daily (b.i.d) injections in the naive rodent. Following one week of acclimatization to the UNM housing environments, rats at this time weighing approximately 200-225 g were randomly assigned to either receive a 50 mg/kg injection b.i.d. of Compound 146 (n=4) or an equivalent weight-based volume of vehicle (Cremophor-NMP) b.i.d. (n=4). Rats received test article or saline for a total of 7 consecutive days. Blood draws were conducted immediately before the 2nd day of injections, before the 4th day, before the 6th day, and at sacrifice. Body weights were obtained at the same times as the blood draws. On the 7th day, blood from both cohorts was collected via cardiac puncture while under anesthesia. Lungs, heart, liver and kidney were collected and snap frozen in liquid nitrogen for post-mortem bioassays.

rat PGT = target: T1, rat PGT (Rattus norvegicus, UniProt Q00910); details: cited from earlier work
T1 construct: expressed in transfected cells

C57BL6/J mice [4] = assay: High fat diet induced body weight gain, food and water intake in mice; assay type: in vivo; details: WT C57BL6 mice on HFD, 0.2 mM in drinking water
Description: CD and HFD were purchased from Purina LabDiet (Framingham, Mass.), and Research Diets (New Brunswick, N.J.), respectively. PGT global knockout (KO) mice were fed with HFD at 5-6 weeks of age. Simultaneously, WT-CD, WT-HFD, and PGTKO-HFD mice were treated with vehicle (0.4% DMSO+0.4% cremophore) or 0.2 mM Compound 146 from Table 1. To prepare Compound 146 solution, Compound 146 was dissolved in 100% DMSO at a concentration of 50 mM. Two mL of either DMSO or 50 mM Compound 146 were transferred into 500 mL drinking water; 2 mL cremophore were added into the mixture. The mixture was homogenous. Mice were housed individually and fed with CD or HFD, and water (with or without Compound 146) ad libitum. Food and water intakes and body weight were recorded every other day.

O=C(NCCOCCOCCNc1nc(Nc2ccc(C(=O)NCc3ccc(F)cc3)cc2)nc(Nc2ccc(O)c(C(=O)O)c2)n1)c1ccccc1 [Compound 146]
RV pressures, MCT+Vehicle versus MCT+Compound 146 by ANOVA (Sprague-Dawley rats [1]; 15 or 50 mg/kg b.i.d.): not statistically different | RV pulse pressure, MCT+Vehicle versus MCT+Compound 146 by ANOVA (Sprague-Dawley rats [1]; 15 or 50 mg/kg b.i.d.): statistically different | Net RV weight increase by MCT (Sprague-Dawley rats [1]; MCT rats): effect blunted | Deaths/Total N (Sprague-Dawley rats [1]; MCT rats, 15 mg/kg b.i.d. s.c.): 0/8 | Deaths/Total N (Sprague-Dawley rats [1]; MCT rats, 50 mg/kg b.i.d. s.c.): 0/8 | MCT induced increase in total lung weight (Sprague-Dawley rats [1]; MCT rats, both doses): inhibited | RV hypertrophic response (Sprague-Dawley rats [1]; MCT rats, both doses): significant inhibition | RV/LVS ratio (Fulton Index), mean (Sprague-Dawley rats [1]; MCT rats, high dose 50 mg/kg b.i.d.): 0.47 | right lobe dry weight / increase in structural components of the lung (Sprague-Dawley rats [1]; MCT rats, lobe dried for 5 days): abrogated this remodeling | RV/LVS ratio (Fulton Index), mean (Sprague-Dawley rats [1]; MCT rats, low dose 15 mg/kg b.i.d.): 0.41 | Deaths/Total N (Sprague-Dawley rats [1]; Saline-injected rats, 50 mg/kg b.i.d. s.c.): 0/5 | RV pulse pressure, MCT effect compared to control rats (Sprague-Dawley rats [1]; either dose (15 or 50 mg/kg b.i.d.)): MCT induced no significant effect compared to control rats | RV systolic and mean pressures, MCT effect compared to control rats (Sprague-Dawley rats [1]; either dose (15 or 50 mg/kg b.i.d.), ANOVA): MCT induced no significant effect compared to control rats | lethalities (Sprague-Dawley rats [1]; groups receiving any dose): no lethalities | RV pressures, MCT-vehicle compared to MCT-Compound 146, restricted analysis (Sprague-Dawley rats [1]; one-tailed unpaired Student's t-test, P=0.046 low dose and 0.002 high dose): significant reduction | HFD induced glucose intolerance (glucose tolerance test) (C57BL6/J mice [2]): improved HFD induced glucose intolerance | cutaneous lesion diameter close to injection sites (Sprague-Dawley rats [3]; 2 rats of the 50 mg/kg b.i.d. group that did not gain weight): 1.5-2.0 cm | body weight growth (tolerability) (Sprague-Dawley rats [3]; naive rats, 50 mg/kg b.i.d. injection in NMP and Cremophor): heterogeneous failure to thrive | Inh (% of Ctl) 0.01 μM (rat PGT; 0.01 μM compound, second part of Table 1): 28.5 % of Ctl | Inh (% of Ctl) 0.05 μM (rat PGT; 0.05 μM compound, second part of Table 1): 59.8 % of Ctl | Inh (% of Ctl) 0.1 μM (rat PGT; 0.1 μM compound, second part of Table 1 (Cpd 130-151)): 70.4 % of Ctl | HFD induced body weight gain (C57BL6/J mice [4]): blunted HFD induced weight gain
